# Reference: paper PMC10870720, “Lignin bioconversion based on genome mining for ligninolytic genes in Erwinia billingiae QL-Z3” (Biotechnology for Biofuels and Bioproducts, 2024)
# Tested on: ELAC_205
# Settings: laccase; sodium acetate buffer; optimum pH 1.0, 50 °C (kinetic assay conditions not stated separately)
smiles,measurement,value
"CCn1c(=NN=c2sc3cc(S(=O)(=O)O)ccc3n2CC)sc2cc(S(=O)(=O)O)ccc21 [ABTS, 2, 2’-azino-bis (3-ethylbenzothiazoline-6-sulfonic acid)]",Km,360 ± 70 µM
